Patent publication US7598258B2, “Quinoline derivatives and quinazoline derivatives inhibiting autophosphorylation of macrophage colony stimulating factor receptor” (Kirin Beer Kabushiki Kaisha, priority 2002, dated 2009)

target: T1, mouse c-fms (Mus musculus, UniProt P09581); assay: Inhibition of c-fms autophosphorylation in macrophage-like cell line BAC-1.2F5 by M-CSF stimulation (ELISA); type: cell-based; settings: BAC-1.2F5 cells, human recombinant M-CSF 50 ng/ml, read-out: c-fms autophosphorylation 50% inhibitory concentration (IC50)
T1 construct: Macrophage-like cell line BAC-1.2F5 which expresses c-fms as a M-CSF receptor on cell membranes; endogenous in cells; host or cells: BAC-1.2F5 mouse macrophage-like cell line
T1 sequence (P09581 20-977): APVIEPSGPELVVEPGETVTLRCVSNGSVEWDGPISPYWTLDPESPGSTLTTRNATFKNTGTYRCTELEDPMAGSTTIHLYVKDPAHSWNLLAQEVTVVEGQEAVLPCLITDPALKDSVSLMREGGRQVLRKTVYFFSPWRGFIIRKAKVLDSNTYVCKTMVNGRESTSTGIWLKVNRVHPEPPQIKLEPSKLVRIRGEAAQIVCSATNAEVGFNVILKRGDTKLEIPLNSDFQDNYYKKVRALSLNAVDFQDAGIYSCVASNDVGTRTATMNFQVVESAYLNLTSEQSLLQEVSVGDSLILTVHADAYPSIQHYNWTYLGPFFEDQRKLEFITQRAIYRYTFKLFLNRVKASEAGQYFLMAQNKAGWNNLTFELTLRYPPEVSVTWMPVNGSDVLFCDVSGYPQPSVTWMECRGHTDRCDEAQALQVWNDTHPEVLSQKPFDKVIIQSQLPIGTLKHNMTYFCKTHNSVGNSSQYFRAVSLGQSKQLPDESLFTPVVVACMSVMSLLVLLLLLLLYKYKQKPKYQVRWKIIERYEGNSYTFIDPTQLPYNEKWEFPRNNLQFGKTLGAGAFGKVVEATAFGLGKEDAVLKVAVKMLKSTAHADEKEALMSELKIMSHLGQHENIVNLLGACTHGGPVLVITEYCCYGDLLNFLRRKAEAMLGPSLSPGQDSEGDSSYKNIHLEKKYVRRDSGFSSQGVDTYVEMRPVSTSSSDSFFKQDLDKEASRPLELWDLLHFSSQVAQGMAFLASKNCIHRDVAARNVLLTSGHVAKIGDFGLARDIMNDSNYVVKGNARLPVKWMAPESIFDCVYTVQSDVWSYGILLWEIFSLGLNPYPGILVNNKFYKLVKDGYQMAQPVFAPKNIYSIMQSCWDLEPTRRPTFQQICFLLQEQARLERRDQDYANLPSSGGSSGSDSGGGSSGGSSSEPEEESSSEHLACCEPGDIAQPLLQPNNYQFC
How it was run: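 BAC-1.2F5 cells serum-starved (0.1% FCS) 12 h, preincubated with compound 1 h at 37° C, then stimulated 6 min with 50 ng/ml human recombinant M-CSF. Lysates captured on anti-phosphotyrosine plates, detected with anti-c-fms antiserum and peroxidase read-out at 450 nm. IC50 from inhibition normalised between ±M-CSF controls.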

Row | Compound | IC50
1 | COc1cc2c(Oc3ccc(NC(=O)NC(C)c4ccc(F)cc4)cc3F)ccnc2cc1OCCCN1CCOCC1 (centres unmarked) [Example 64, N-(3-Fluoro-4-{[6-methoxy-7-(3-morpholinopropoxy)-4-quinolyl]oxy}phenyl)-N′-[1-(4-fluorophenyl)ethyl]urea] | 9.4 nM
2 | COc1cc2c(Oc3ccc(NC(=O)NC(C)c4ccc(F)cc4)c(F)c3)ccnc2cc1OCCCN1CCOCC1 (centres unmarked) [Example 67, N-(2-Fluoro-4-{[6-methoxy-7-(3-morpholinopropoxy)-4-quinolyl]oxy}phenyl)-N′-[1-(4-fluorophenyl)ethyl]urea] | 5.7 nM
3 | COc1cc2c(Oc3ccc(NC(=O)NC(C)c4ccc(F)c(F)c4)c(F)c3)ccnc2cc1OCCCN1CCOCC1 (centres unmarked) [Example 68, N-[1-(3,4-Difluorophenyl)ethyl]-N′-(2-fluoro-4-{[6-methoxy-7-(3-morpholinopropoxy)-4-quinolyl]oxy}phenyl)urea] | 9.8 nM
4 | COc1cc2c(Oc3ccc(NC(=O)NC(C)c4ccc(F)cc4F)c(F)c3)ccnc2cc1OCCCN1CCOCC1 (centres unmarked) [Example 69, N-[1-(2,4-Difluorophenyl)ethyl]-N′-(2-fluoro-4-{[6-methoxy-7-(3-morpholinopropoxy)-4-quinolyl]oxy}phenyl)urea] | 11.5 nM
5 | COc1cc2nccc(Oc3ccc(NC(=O)NC(C)c4nccs4)c(F)c3)c2cc1OC (centres unmarked) [Example 70, N-{4-[(6,7-Dimethoxy-4-quinolyl)oxy]-2-fluorophenyl}-N′-[1-(1,3-thiazol-2-yl)ethyl]urea] | 3.6 nM
6 | COc1cc2nccc(Oc3ccc(NC(=O)N[C@@H](C)c4nccs4)c(F)c3)c2cc1OC [Example 71, N-{4-[(6,7-Dimethoxy-4-quinolyl)oxy]-2-fluorophenyl}-N′-[(1S)-1-(1,3-thiazol-2-yl)ethyl]urea] | 3 nM
7 | COc1cc2nccc(Oc3ccc(NC(=O)NC(C)c4nccs4)cc3)c2cc1OC (centres unmarked) [Example 77, N-{4-[(6,7-Dimethoxy-4-quinolyl)oxy]phenyl}-N′-[1-(1,3-thiazol-2-yl)ethyl]urea] | 4.7 nM
8 | COc1cc2nccc(Oc3ccc(NC(=O)N[C@@H](C)c4nccs4)cc3)c2cc1OC [Example 78, N-{4-[(6,7-Dimethoxy-4-quinolyl)oxy]phenyl}-N′-[(S)-1-(1,3-thiazol-2-yl)ethyl]urea] | 2.9 nM

Results, then the compound that gave them:

Row | IC50 | Compound
9 | 30.9 nM | COc1cc2nccc(Oc3ccc(NC(=O)N[C@H](C)c4cccc(Br)c4)c(F)c3)c2cc1OC [Example 63, N-[(1R)-1-(3-Bromophenyl)ethyl]-N′-{4-[(6,7-dimethoxy-4-quinolyl)oxy]-2-fluorophenyl}urea]
10 | 13.9 nM | COc1cc2c(Oc3ccc(NC(=O)NC(C)c4ccc(F)c(F)c4)cc3F)ccnc2cc1OCCCN1CCOCC1 (centres unmarked) [Example 65, N-[1-(3,4-Difluorophenyl)ethyl]-N′-(3-fluoro-4-{[6-methoxy-7-(3-morpholinopropoxy)-4-quinolyl]oxy}phenyl)urea]
11 | 14.7 nM | COc1cc2c(Oc3ccc(NC(=O)NC(C)c4ccc(F)cc4F)cc3F)ccnc2cc1OCCCN1CCOCC1 (centres unmarked) [Example 66, N-[1-(2,4-Difluorophenyl)ethyl]-N′-(3-fluoro-4-{[6-methoxy-7-(3-morpholinopropoxy)-4-quinolyl]oxy}phenyl)urea]
12 | 4.9 nM | COc1cc2nccc(Oc3ccc(NC(=O)N[C@H](C)c4nccs4)c(F)c3)c2cc1OC [Example 72, N-{4-[(6,7-Dimethoxy-4-quinolyl)oxy]-2-fluorophenyl}-N′-[(1R)-1-(1,3-thiazol-2-yl)ethyl]urea]
13 | 3 nM | COc1cc2nccc(Oc3ccc(NC(=O)NC(C)c4nccs4)cc3F)c2cc1OC (centres unmarked) [Example 73, N-{4-[(6,7-Dimethoxy-4-quinolyl)oxy]-3-fluorophenyl}-N′-[1-(1,3-thiazol-2-yl)ethyl]urea]
14 | 5 nM | COc1cc(Oc2ccnc3cc(OC)c(OC)cc23)ccc1NC(=O)NC(C)c1nccs1 (centres unmarked) [Example 74, N-{4-[(6,7-Dimethoxy-4-quinolyl)oxy]-2-methoxyphenyl}-N′-[1-(1,3-thiazol-2-yl)ethyl]urea]
